Test results: ChEMBL document CHEMBL1150538, “Anti HIV-1 activity of a hydrophilic cyclosporin derivative with improved binding affinity to cyclophilin A” (Bioorg Med Chem Lett, 1996)
Values after ≈ are worked out from the molar mass of the structure shown.

Legend:
Mus musculus = organism: Mus musculus; experiment: In vitro immunosuppressive activity relative to cyclosporin A was determined by using mouse mixed lymphocyte reaction; format: functional
Jurkat = experiment: In vitro immunosuppressive activity relative to cyclosporin A using interleukin-2 reporter gene assay was determined in a Jurkat cell line; format: functional, Homo sapiens
AIK-T4 = experiment: In vitro inhibition of the cytopathic effect induced by HIV-1(IIIB) using the human T-cell leukemia virus transformed T4 cell line.; format: functional, cell-based

SMILES	Relative IC50 (Mus musculus)	Relative IC50 (Jurkat)	IC50 (AIK-T4) [µg/mL]
C/C=C/C[C@@H](C)[C@@H](O)[C@H]1C(=O)N[C@@H](CC)C(=O)N(C)[C@H](CO)C(=O)N(C)[C@@H](CC(C)(C)O)C(=O)N[C@@H](C(C)C)C(=O)N(C)[C@@H](CC(C)C)C(=O)N[C@@H](C)C(=O)N[C@H](C)C(=O)N(C)[C@@H](CC(C)C)C(=O)N(C)[C@@H](CC(C)C)C(=O)N(C)[C@@H](C(C)C)C(=O)N1C [listing 1 of 2 here]	>3333	>770	–
C/C=C/C[C@@H](C)[C@@H](O)[C@H]1C(=O)N[C@@H](CC)C(=O)N(C)[C@H](CO)C(=O)N(C)[C@@H](CC(C)(C)O)C(=O)N[C@@H](C(C)C)C(=O)N(C)[C@@H](CC(C)C)C(=O)N[C@@H](C)C(=O)N[C@H](C)C(=O)N(C)[C@@H](CC(C)C)C(=O)N(C)[C@@H](CC(C)C)C(=O)N(C)[C@@H](C(C)C)C(=O)N1C [listing 2 of 2 here]	–	–	0.12 (≈ 0.0961 µM)
